From patent publication US4542210A, “1-β-D-Arabinofuranosyl-(E)-5-(2-halogenovinyl)-uracil-5'-phosphate, preparation thereof and use thereof” (Yamasa Shoyu Kabushiki Kaisha, priority 1981, dated 1985)
Converted amounts (≈) assume the structure as drawn. Structures can show the parent of a compound that is named as a salt. Where two headings read alike, the source gives them in different places.

How the values were obtained:
[1] = Solubility in water; type: physicochemical
[2] = tested on: RE strain of HSV (type 1); test: Ulcerative herpetic keratitis in pigmented rabbits, ointment treatment; type: in vivo, RE strain; pigmented rabbits; design: Effect (lesion inhibition): unit not given here; conditions: for Effect (lesion inhibition): control 0; for % score: control 100
Protocol: (1) Pigmented rabbits, weighing between 2.0 and 3.0 kg, were anesthetised with intravenous pentobarbital sodium (30 mg/kg) and given a retrobulbar injection of 0.5 ml of 1% procaine. For inoculation a suspension of the RE strain of HSV (type 1) was drawn into a fine glass capillary tube (British Journal of Ophthalmology, Vol. 63, No. 6, 425-428 (1979).
After inoculation the eye was left open for 30 seconds and then the lids were closed with cellophane tape. The same procedure was repeated on the other eye. In one group of 3 rabbits the right eyes were treated with 1% BVAUP ointment and the left eyes with 1% BVAU ointment, or vice versa. In another group 3 eyes received no treatment as controls. The treatment was started 48 hours after inoculation and continued every 2 hours during the daytime 5 times a day for 4 days. The eyes were examined 48 hours after inoculation and then every 24 hours with a photo-slit lamp after applying 1% Bengal rose. Each inoculation site was scored according to the extent of the circumference infected.
The total daily score for each eye was calculated and expressed as a percentage of the score (percentage score) immediately before treatment. The therapeutic efficacies of BVAUP and BVAU against ulcerative herpetic keratitis were compared by calculating their average percentage scores.
(2) 0.3% BVAUP ointment and 3% BVAUP ointment were respectively prepared, and were subjected to the similar pharmacological test as shown in (1).

[3] = tested on: HSV-1-VR-3; test: Antiviral activity in human embryonic lung fibroblasts (method of Sidwell et al), HSV-1-VR-3; type: cell-based, herpes simplex virus type 1 strain VR3; design: MIC: minimum inhibitory concentration at which HSV induced cytopathogenic effects were depressed more than 50%: unit not given here
Protocol: (§1) According to the method of Sidwell et al (Applied Microbiology, 22, (5), 797 (1971)), with the use of human embryonic lung fibroblasts, the antiviral activities of BVAUP and CVAUP were tested, with BVAU, CVAU and 5-iodo-2'-deoxyuridine (IDU) as controls.
(§2) effects were depressed more than 50%;
^1 HSV1-VR-3: herpes simplex virus type 1 strain VR3

[4] = tested on: HSV-2-MS; test: Antiviral activity in human embryonic lung fibroblasts (method of Sidwell et al), HSV-2-MS; type: cell-based, herpes simplex virus type 2 strain MS; design: MIC: minimum inhibitory concentration at which HSV induced cytopathogenic effects were depressed more than 50%: unit not given here
Protocol: as §1, §2
^2 HSV2-MS: herpes simplex virus type 2 strain MS

[5] = Acute toxicity (LD50) in mice; conditions: mouse, in vivo
[6] = tested on: type 2 herpes (HSV-2); test: Antiviral activity against HSV-2 compared with HSV-1 or VZV (general statement)
[7] = 1% ointment, 5 times a day for 4 days
[8] = 1% ointment, 5 times a day for 4 days, control 97.0

SMILES | solubility [1] | Effect (lesion inhibition) [2, 7] | Total score per eye [2, 8] | % score [2, 7] | MIC: minimum inhibitory concentration at which HSV induced cytopathogenic effects were depressed more than 50% [3] | VR: virus rating [3] | MIC: minimum inhibitory concentration at which HSV induced cytopathogenic effects were depressed more than 50% [4] | VR: virus rating [4] | LD50 ([5]; ip, intraperitoneally, read-out: LD50, intraperitoneal) | LD50 ([5]; iv, intravenously, read-out: LD50, intravenous) | antiviral activity against HSV-2 [6] | Effect (lesion inhibition) ([2]; 0.3% ointment) | Total score per eye ([2]; 0.3% ointment, control 88.7) | % score ([2]; 0.3% ointment) | Effect (lesion inhibition) ([2]; 3% ointment) | % score ([2]; 3% ointment) | Total score per eye ([2]; 3% ointment, control 114.0)
O=c1[nH]c(=O)n([C@@H]2O[C@H](CO)[C@@H](O)[C@@H]2O)cc1/C=C/Br [BVAU, 1-β-D-arabinofuranosyl-(E)-5-(2-bromovinyl)uracil, reference compound] | 4 mg/mL (≈ 11.5 mM) | 43.0 | 55.3 | 57.0% | 0.032 | 3.7 | 32 | 1.1 | – | – | – | – | – | – | – | – | –
O=c1[nH]c(=O)n([C@@H]2O[C@H](COP(=O)(O)O)[C@@H](O)[C@@H]2O)cc1/C=C/Br [BVAUP, 1-β-D-arabinofuranosyl-(E)-5-(2-bromovinyl)uracil-5'-phosphate] | – | 53.9 | 44.7 | 46.1% | 0.032 | 3.8 | 32 | 1.1 | 1730 mg/kg | 1610 mg/kg | lower than that against the type 1 herpes (HSV-1) or VZV | 38.3 | 54.7 | 61.7% | 71.9 | 28.1% | 32.0
O=c1[nH]c(=O)n([C@@H]2O[C@H](CO)[C@@H](O)[C@@H]2O)cc1/C=C/Cl [CVAU, 1-β-D-arabinofuranosyl-(E)-5-(2-chlorovinyl)uracil] | – | – | – | – | 0.032 | 3.7 | 100 | 0.7 | – | – | – | – | – | – | – | – | –
O=c1[nH]c(=O)n([C@@H]2O[C@H](COP(=O)(O)O)[C@@H](O)[C@@H]2O)cc1/C=C/Cl [CVAUP, 1-β-D-arabinofuranosyl-(E)-5-(2-chlorovinyl)uracil-5'-phosphate] | – | – | – | – | 0.032 | 3.7 | 320 | 0.5 | – | – | – | – | – | – | – | – | –
O=c1[nH]c(=O)n([C@H]2C[C@H](O)[C@@H](CO)O2)cc1I [IDU, 5-iodo-2'-deoxyuridine] | – | – | – | – | 3.2 | 2.4 | 3.2 | 2.2 | – | – | – | – | – | – | – | – | –
O=c1[nH]c(=O)n([C@@H]2O[C@H](COP(=O)(O)O)[C@@H](O)[C@@H]2O)cc1/C=C/Br [disodium salt of 1-β-D-arabinofuranosyl-(E)-5-(2-bromovinyl)uracil-5'-phosphate] | ~500 mg/mL | – | – | – | – | – | – | – | – | – | – | – | – | – | – | – | –
